According to patent US12721342B2, “Agricultural composition of indoleacetic acid having increased photostability, process for the production and use thereof” (TOTAL BIOTECNOLOGIA INDÚSTRIA E COMÉRCIO S/A, priority 2021, dated 2026):

Assays:
[1] = Photostability to UV light, first assay (IAA concentration by Salkwolski reagent); type: physicochemical
Procedure: For validating the formulation that guarantees photostability of the indoleacetic acid phytohormone, two procedures were carried out. In the first assay, the following was compared: i) synthetic IAA with water (with no protection from melanoidins); ii) synthetic IAA with the same culture medium used in the biological IAA production process of the present invention and iii) biological IAA; all samples being subjected to the sterilization process at 121° C. for approximately 1 hour, as claimed for the stabilization of indole compounds due to the production of melanoidins via Maillard reaction. After the period of time required for stabilization, IAA concentrations were assessed using Salkwolski reagent according to the methodology proposed by Glickmann and Dessaux (1994).

[2] = depending on the wavelength and intensity; cited from earlier work

Compound	photodegradation ([1]; 1 hour of exposure to UV light, samples sterilized at 121° C. for approximately 1 hour) [%]	degradation by UV light (in words) ([1]; after 4 hours of exposure to UV light)	reduction of IAA by light decomposition [2]
O=C(O)Cc1c[nH]c2ccccc12 [indoleacetic acid]	74.5	fully degraded	
O=C(O)Cc1c[nH]c2ccccc12 [IAA, indoleacetic acid]			up to 90%
